# Assay results: patent publication US5342843A, “Thienoimidazoppyridone derivatives” (Kyowa Hakko Kogyo Co., Ltd., priority 1991, dated 1994)
# Key:
# [1] = tested on: plaque-forming cells (PFC); assay: Inhibiting effect on plaque-forming cells (PFC); type: cell-based, Balb/c strain male mice; details: 120 h; concentration: 10^-5 M; mouse spleen cells, 5 days culture; read-out: PFC inhibition rate (%)
# Excerpt: The method devised by Jerne, et al. [Science, Vol. 140, p.405 (1963)] was followed while referring to the method of Yamamoto, et al. [Drugs Exptl. Clin. Res., Vol. 8, p.5 (1982)]. That is, Balb/c strain male mice (7-week-old/SLC) were sensitized with 1×10^8 sheep erythrocytes (manufactured by Bio Test Research Institute), and the spleen was extirpated on the 6th or 7th day. The erythrocytes were removed using ACT solution [Tris (hydroxymethyl) aminomethane-NH4 Cl solution] from the spleen cells, and were washed with RPMI-1640 medium (manufactured by Nissui Seiyaku Co.) three times. Suspensions of the obtained cells (1×10^7) and the sheep erythrocytes (5×10^6) were suspended with RPMI-1640 medium containing the test compound, 2-mercaptoethanol (5×10^-5 M), 10% bovine fetal serum (manufactured by Gibco Co.), streptomycin and penicillin. The obtained cell suspension was distributed into a 24-well microculture plate, and cultured in a carbon dioxide gas incubator at 37° C. for 5 days.
# After the completion of culturing, the cells were transferred to a plastic test tube. They are centrifuged at 2000 rpm and the supernatant was removed. Then, the cells were further suspended in 1 ml of RPMI-1640. The cell suspension was charged, together with the sheep erythrocytes and the guinea pig complements, into a Cunningham chamber (manufactured by Takahashi Giken Co.), by the method of Cunningham, et al. [Immunology, Vol. 14, p.599 (1968)]. The cells were incubated at 37° C. for 1-2 hours, and then a direct PFC count was determined.
# guinea pig trachea = assay: Passive Schultz-Dale reaction (relaxation of ovalbumin-induced contraction of passively sensitized trachea); design: species or system male Hartley guinea pigs; details: Cavia porcellus; concentration causing 50% relaxation; ovalbumin 1 μg/ml, cumulative addition; isolated trachea, 37° C.
# Description: Rabbit anti-OA serum prepared in advance by the method of Kohda, et al. [Folia Pharmacol. Japan, Vol. 66, p. 237 (1970)], was intraperitoneally administered to male Hartley guinea pigs weighing 350-500 g for passive sensitization, and 24 hours later tracheas of the animals were removed, and used for the following test. The tracheas were cut into zig-zag strips by the method of Emmerson and Mackay [J. Pharm. Pharmacol., Vol. 31, p.798 (1979)], were suspended in Krebs-Hensleit solution at 37° C. under aeration of a gas mixture of 95% oxygen and 5% carbon dioxide, and equilibrated for about 1 hour. The antigen, ovalbumin, was added to a bath (final concentration; 1 μg/ml). The contraction was recorded using an isotonic transducers (TD-112S; Nihon Koden Kogyo Co.) connected to a recorder (TYPE 3066; Yokogawa Hokushin Electric). Following the contraction curves reached a plateau, a test compound was cumulatively added in order to calculate the concentration causing 50% relaxation (IC50) which was determined from least-squares regression analysis.
Compound,inhibition at 10 µM [1] [%],IC50 (guinea pig trachea) [µM]
"CC(C)n1c(=O)c2ncn(C)c2c2sccc21 [Compound 9, 5-isopropyl-1-methylthieno[3,2-b]-1H-imidazo[4,5-d]pyridine-4(5H)-one]",23.8,7.29
"CCn1c(=O)c2[nH]cnc2c2sccc21 [Compound 16, 5-ethylthieno[3,2-b]-3H-imidazo[4,5-d]pyridine-4(5H)one]",83.1,0.657
"CCCCn1c(=O)c2ncn(C)c2c2ccsc21 [Compound 34, 5-n-butyl-1-methylthieno [2,3-b]-1H-imidazo [4,5-d]pyridine-4 (5H)-one]",-16.5,8.98
"CCCCn1c(=O)c2c(ncn2Cc2ccccc2)c2sccc21 [Compound 3, 3-benzyl-5-n-butylthieno [3,2-b]-3H-imidazo [4,5-d]pyridine-4 (5H)-one]",92.4,–
"CCCCn1c(=O)c2ncn(Cc3ccccc3)c2c2ccsc21 [Compound 35, 1-benzyl-5-n-butylthieno [2,3-b]-1H-imidazo [4,5-d]pyridine-4 (5H)-one]",-3.8,6.06
"CCCCn1c(=O)c2c(ncn2C)c2ccsc21 [Compound 32, 5-n-butyl-3-methylthieno [2,3-b]-3H-imidazo [4,5-d]pyridine-4 (5H)-one]",16.5,0.854
"CCCn1c(=O)c2c(ncn2C)c2sccc21 [Compound 12, 3-methyl-5-n-propylthieno [3,2-b]-3H-imidazo [4,5-d]pyridine-4(5H)-one]",60.4,2.95
"CCCn1c(=O)c2ncn(C)c2c2sccc21 [Compound 14, 1-methyl-5-n-propylthieno [3,2-b]-1H-imidazo [4,5-d]pyridine-4 (5H)-one]",–,6.56
"CCCn1c(=O)c2c(ncn2Cc2ccccc2)c2sccc21 [Compound 13, 3-benzyl-5-n-propylthieno [3,2-b]-3H-imidazo [4,5-d]pyridine-4(5H)-one]",68.3,–
"CC(C)n1c(=O)c2c(ncn2C)c2sccc21 [Compound 7, 5-isopropyl-3-methylthieno[3,2-b]-3H-imidazo[4,5-d]pyridine-4(5H)-one]",29.5,3.53
"CCn1c(=O)c2ncn(C)c2c2sccc21 [Compound 19, 5-ethyl-1-methylthieno [3,2-b]-1H-imidazo [4,5-d]pyridine-4 (5H)-one]",–,9.98
"CC(C)n1c(=O)c2[nH]cnc2c2sccc21 [Compound 6, 5-isopropylthieno [3,2-b]-3H-imidazo [4,5-d]pyridine-4 (5H)-one]",8.8,2.67
"CCCCn1c(=O)c2[nH]cnc2c2ccsc21 [Compound 31, 5-n-butylthieno [2,3-b]-3H-imidazo [4,5-d]pyridine-4 (5H) one]",-10.9,0.416
"CCCCn1c(=O)c2c(ncn2Cc2ccccc2)c2ccsc21 [Compound 33, 3-benzyl-5-n-butylthieno [2,3-b]-3H-imidazo [4,5-d]pyridine-4 (5H)-one]",94.8,36.9
"CCCCn1c(=O)c2[nH]cnc2c2sccc21 [Compound 1, 5-n-butylthieno[3,2-b]-3H-imidazo[4,5-d]pyridine-4(5H)-one]",39.3,4.63
"CCn1c(=O)c2ncn(Cc3ccccc3)c2c2sccc21 [Compound 20, 1-benzyl-5-ethylthieno [3,2-b]-1H-imidazo [4,5-d]pyridine-4 (5H)-one]",–,3.41
"CCCn1c(=O)c2ncn(Cc3ccccc3)c2c2ccsc21 [Compound 39, 1-benzyl-5-n-propylthieno [2,3-b]-1H-imidazo [4,5-d]pyridine-4 (5H)-one]",–,2.39
"CCCn1c(=O)c2[nH]cnc2c2sccc21 [Compound 11, 5-n-propylthieno [3,2-b]-3H-imidazo [4,5-d]pyridine-4(5H)-one]",–,0.922
"CCn1c(=O)c2c(ncn2C)c2sccc21 [Compound 17, 5-ethyl-3-methylthieno[3,2-b]-3H-imidazo[4,5-d]pyridine-4 (5H)-one]",47,10.5
"CCCCn1c(=O)c2c(ncn2C)c2sccc21 [Compound 2, 5-n-butyl-3-methylthieno[3,2-b]-3H-imidazo[4,5-d]pyridine-4(5H)-one]",43.3,12.2
